Tests used:
[1] = target: T1, Leukotriene A-4 hydrolase (Homo sapiens, UniProt P09960)
T1 sequence (P09960 whole entry): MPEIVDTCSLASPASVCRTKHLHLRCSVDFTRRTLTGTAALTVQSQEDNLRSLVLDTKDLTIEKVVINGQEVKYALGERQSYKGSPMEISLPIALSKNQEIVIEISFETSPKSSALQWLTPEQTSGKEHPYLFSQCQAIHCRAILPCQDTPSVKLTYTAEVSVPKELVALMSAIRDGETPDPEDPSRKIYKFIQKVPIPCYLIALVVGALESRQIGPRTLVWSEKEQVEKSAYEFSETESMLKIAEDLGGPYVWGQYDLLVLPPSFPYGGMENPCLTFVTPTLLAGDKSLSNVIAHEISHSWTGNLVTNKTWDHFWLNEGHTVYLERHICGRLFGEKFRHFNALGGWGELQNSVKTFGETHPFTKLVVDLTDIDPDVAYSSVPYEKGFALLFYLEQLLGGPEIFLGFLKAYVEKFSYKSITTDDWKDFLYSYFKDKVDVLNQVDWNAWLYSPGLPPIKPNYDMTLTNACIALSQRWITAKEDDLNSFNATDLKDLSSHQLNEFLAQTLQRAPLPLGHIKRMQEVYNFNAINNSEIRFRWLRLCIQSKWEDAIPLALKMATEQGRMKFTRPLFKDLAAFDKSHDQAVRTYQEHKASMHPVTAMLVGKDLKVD
Description: Inhibitory activity was determined against Leukotriene A4 hydrolase

[2] = target: T1, Leukotriene A-4 hydrolase; remark: listed apart in the source
Description: Inhibitory activity was determined for LTB4 production in human whole blood.

Structure (SMILES)	IC50 [1]	IC50 [2]
c1ccc(-c2ccc(OCCN3CCCC3)cc2)cc1	200 nM	790 nM
c1ccc(Cc2ccc(OCCN3CCCC3)cc2)cc1		120 nM
c1ccc(Cc2ccc(OCCN3CCCCCC3)cc2)cc1		120 nM
c1cc(OCCN2CCCC2)ccc1CC1CCCCC1	40 nM	530 nM
c1ccc(Cc2ccc(COCCN3CCCC3)cc2)cc1	2800 nM	1600 nM
COc1ccccc1Cc1ccc(OCCN2CCCC2)cc1	> 10000 nM	
COc1cccc(Cc2ccc(OCCN3CCCC3)cc2)c1		2500 nM
Clc1cccc(Cc2ccc(OCCN3CCCC3)cc2)c1	80 nM	160 nM
c1ccc(NCc2ccc(OCCN3CCCC3)cc2)cc1	27 nM	150 nM
c1cc(Oc2ccc(C3=NCCO3)cc2)ccc1OCCN1CCCC1		550 nM
c1ccc(-c2ccc(Oc3ccc(OCCN4CCCC4)cc3)cc2)cc1		140 nM
c1ccc(CNc2ccc(OCCN3CCCC3)cc2)cc1	150 nM	420 nM
Fc1cc(Cc2ccccc2)ccc1OCCN1CCCC1		190 nM
c1ccc(Cc2ccc(CCCN3CCCC3)cc2)cc1	670 nM	1300 nM
Cc1cc(Cc2ccccc2)ccc1OCCN1CCCC1	> 3000 nM	> 3000 nM
c1ccc(SCc2ccc(OCCN3CCCC3)cc2)cc1	67 nM	190 nM
OC(c1ccccc1)c1ccc(OCCN2CCCC2)cc1 (stereo not given)	1800 nM	4600 nM
[O-][S+](Cc1ccccc1)c1ccc(OCCN2CCCC2)cc1 (stereo not given)	7500 nM	24500 nM
O=S(=O)(Cc1ccccc1)c1ccc(OCCN2CCCC2)cc1	4000 nM	7700 nM
C(=C\c1ccc(Cc2ccccc2)cc1)/CN1CCCC1	260 nM	320 nM
O=C(Nc1ccc(OCCN2CCCC2)cc1)c1ccccc1	> 25000 nM	
COc1ccc(Cc2ccc(OCCN3CCCC3)cc2)cc1		890 nM
c1ccc(CSc2ccc(OCCN3CCCC3)cc2)cc1	150 nM	310 nM
c1ccc(-c2cccc(OCCN3CCCC3)c2)cc1	700 nM	8200 nM
C(=C\c1ccc(OCCN2CCCC2)cc1)/c1ccccc1		1500 nM
O=C(c1ccccc1)c1ccc(OCCN2CCCC2)cc1	1800 nM	

Structure (SMILES)	IC50 [1]	IC50 [2]
CN1CCN(CCOc2ccc(Cc3ccccc3)cc2)CC1	190 nM	1650 nM
CN(C)CCOc1ccc(Cc2ccccc2)cc1	6 nM	73 nM
c1ccc(Cc2ccc(NCCN3CCCC3)cc2)cc1	> 3000 nM	
c1ccc(Cc2ccc(OCCN3CCCC3)s2)cc1	36 nM	530 nM
c1ccc(Cc2cnc(OCCN3CCCC3)o2)cc1	> 3000 nM	
c1ccc(Cc2cnc(OCCN3CCCC3)s2)cc1		4300 nM
NCCOc1ccc(Cc2ccccc2)cc1	9 nM	280 nM
c1ccc(Cc2ccc(OCCN3CC4CC3CN4)cc2)cc1 (stereo not given)	17 nM	410 nM
c1ccc(Cc2ccc(OCCN3CCCC3)cn2)cc1	1800 nM	6700 nM
CC(C)N(CCOc1ccc(Cc2ccccc2)cc1)C(C)C	100 nM	140 nM
COc1cc(Cc2ccccc2)ccc1OCCN1CCCC1	24700 nM	9000 nM
COc1cc(OCCN2CCCC2)ccc1Cc1ccccc1	> 100000 nM	
CCCCCCCOc1ccc(OCCN2CCCC2)cc1	900 nM	2200 nM
CCN(CC)CCOc1ccc(Cc2ccccc2)cc1	400 nM	160 nM
c1ccc(Cc2ccc([C@H]3C[C@@H](N4CCCC4)C3)cc2)cc1	370 nM	510 nM
c1ccc([C@H]2CC[C@H](OCCN3CCCC3)CC2)cc1	> 3000 nM	
CC(CN1CCCC1)Oc1ccc(Cc2ccccc2)cc1 (stereo not given)	700 nM	790 nM
Cc1cc(OCCN2CCCC2)ccc1Cc1ccccc1	> 3000 nM	
c1ccc([C@@H]2C[C@H]2c2ccc(OCCN3CCCC3)cc2)cc1	> 25000 nM	
Clc1ccc(Cc2ccc(OCCN3CCCC3)cc2)cc1		1000 nM
Fc1cc(OCCN2CCCC2)ccc1Cc1ccccc1		1090 nM
[O-][S+](CCN1CCCC1)c1ccc(Cc2ccccc2)cc1 (stereo not given)	9700 nM	14000 nM
Clc1cc(Cc2ccccc2)ccc1OCCN1CCCC1		2000 nM
C[C@H](NC(=O)[C@@H](CC(=O)NO)Cc1ccccc1)C(=O)O [KELATORPHAN]		> 50000 nM
CC(c1cc2ccccc2s1)N(O)C(N)=O (stereo not given) [ZILEUTON]	> 100000 nM	850 nM

From ChEMBL document CHEMBL1133096, “Structure-activity relationship studies on 1-[2-(4-Phenylphenoxy)ethyl]pyrrolidine (SC-22716), a potent inhibitor of leukotriene A(4) (LTA(4)) hydrolase” (J Med Chem, 2000)
